This passage reports Ki results from patent US11014929B2, “Pyrazolopyrimidine compounds and uses thereof” (Incyte Corporation, priority 2016, dated 2021).

The Ki is a measure of affinity in units of concentration, obtained from inhibition or displacement. A lower Ki goes with higher affinity.

Where only a bound is given, the exact number is not on record here.

Sequence of HPK1 (Q92918 1-346): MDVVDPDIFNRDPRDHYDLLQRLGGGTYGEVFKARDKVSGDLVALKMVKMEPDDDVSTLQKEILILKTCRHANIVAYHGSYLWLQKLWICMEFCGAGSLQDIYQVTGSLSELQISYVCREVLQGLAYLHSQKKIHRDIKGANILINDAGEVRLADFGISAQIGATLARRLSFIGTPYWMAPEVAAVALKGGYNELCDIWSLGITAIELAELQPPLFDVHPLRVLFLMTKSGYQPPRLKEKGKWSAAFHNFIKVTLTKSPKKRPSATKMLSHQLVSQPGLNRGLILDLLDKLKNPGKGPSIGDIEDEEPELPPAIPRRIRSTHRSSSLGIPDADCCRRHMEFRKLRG

The assay addresses HPK1 (Homo sapiens (Human), UniProt Q92918). The assay is described as follows: HPK1 Kinase Binding Assay. The conditions noted are these: LanthaScreen tracer 222 binding, active HPK1, one hour incubation at 25° C. The essentials: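 This is a LanthaScreen tracer-binding format: a tracer 222/Eu-anti-GST antibody mix (18 nM and 4 nM solution) is added to active HPK1 (4 nM solution) with 3-fold, 11-point compound dilutions. Incubation is 1 h at 25 °C in HEPES pH 7.5 buffer before reading, and Ki is determined.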
In general terms: Time-resolved FRET reads energy transfer from a long-lived donor to a nearby acceptor.
As for `CN1CCN(c2ccc(-c3n[nH]c4cnc(-c5cncc(C(=O)N6CCOCC6)c5)nc34)cc2)CC1` [Example 8, (5-(3-(4-(4-Methylpiperazin-1-yl)phenyl)-1H-pyrazolo[4,3-d]pyrimidin-5-yl)pyridin-3-yl)(morpholino)methanone], the Ki was at most 100 nM.
To `Cc1cccc(F)c1-c1ncc2[nH]nc(-c3ccc(N4CCC(C#N)CC4)cc3)c2n1` [Example 58, 1-(4-(5-(2-Fluoro-6-methylphenyl)-1H-pyrazolo[4,3-d]pyrimidin-3-yl)phenyl)piperidine-4-carbonitrile] belongs at most 100 nM; to `CNCc1cc(F)c(-c2ncc3[nH]nc(-c4ccc(N5CCN(CCO)CC5)cc4)c3n2)c(F)c1` [Example 73, 2-(4-(4-(5-(2,6-Difluoro-4-((methylamino)methyl)phenyl)-1H-pyrazolo[4,3-d]pyrimidin-3-yl)phenyl)piperazin-1-yl)ethanol], at most 100 nM.
`CN1CCN(c2ccc(-c3n[nH]c4cnc(-c5c(F)cccc5Cl)nc34)cc2)CC1` [Example 4, 5-(2-Chloro-6-fluorophenyl)-3-(4-(4-methylpiperazin-1-yl)phenyl)-1H-pyrazolo[4,3-d]pyrimidine] displayed a Ki of at most 100 nM.
For `COc1cccc(-c2n[nH]c3cnc(-c4c(F)cccc4OC)nc23)c1` [Example 19, 5-(2-Fluoro-6-methoxyphenyl)-3-(3-methoxyphenyl)-1H-pyrazolo[4,3-d]pyrimidine], the Ki is at most 100 nM.
With `CN1CCN(c2ncc(-c3n[nH]c4cnc(-c5c(F)cc6c(c5F)CNCC6)nc34)cn2)CC1` [Example 92, 6,8-Difluoro-7-(3-(2-(4-methylpiperazin-1-yl)pyrimidin-5-yl)-1H-pyrazolo[4,3-d]pyrimidin-5-yl)-1,2,3,4-tetrahydroisoquinoline], the Ki was at most 100 nM.
On to `CNC(C)c1cc(F)c(-c2ncc3[nH]nc(-c4cnn(C)c4)c3n2)c(F)c1` (stereo not drawn) [Example 85, 1-(3,5-Difluoro-4-(3-(1-methyl-1H-pyrazol-4-yl)-1H-pyrazolo[4,3-d]pyrimidin-5-yl)phenyl)-N-methylethanamine], for which the Ki is at most 100 nM.
To `CNCc1cc(F)c(-c2ncc3[nH]nc(-c4cnn(C)c4)c3n2)c(OC)c1` [Example 86, 1-(3-Fluoro-5-methoxy-4-(3-(1-methyl-1H-pyrazol-4-yl)-1H-pyrazolo[4,3-d]pyrimidin-5-yl)phenyl)-N-methylmethanamine] belongs at most 100 nM; to `Cc1cc(C2CCCN2)cc(F)c1-c1ncc2[nH]nc(-c3ccc(N4CCN(C)CC4)cc3)c2n1` (stereo not drawn) [Example 80, 5-(2-Fluoro-6-methyl-4-(pyrrolidin-2-yl)phenyl)-3-(4-(4-methylpiperazin-1-yl)phenyl)-1H-pyrazolo[4,3-d]pyrimidine], at most 100 nM; to `CCN1CCN(c2ccc(-c3n[nH]c4cnc(-c5c(F)cc(CNC)cc5F)nc34)cc2)CC1` [Example 67, 1-(4-(3-(4-(4-Ethylpiperazin-1-yl)phenyl)-1H-pyrazolo[4,3-d]pyrimidin-5-yl)-3,5-difluorophenyl)-N-methylmethanamine], at most 100 nM.
With `COc1cccc(F)c1-c1ncc2[nH]nc(-c3ccc(N4CCNCC4)nc3)c2n1` [Example 52, 5-(2-Fluoro-6-methoxyphenyl)-3-(6-(piperazin-1-yl)pyridin-3-yl)-1H-pyrazolo[4,3-d]pyrimidine] the figure was at most 100 nM.
With `COc1cccc(F)c1-c1ncc2[nH]nc(-c3ccn(C)c(=O)c3)c2n1` [Example 49, 4-(5-(2-Fluoro-6-methoxyphenyl)-1H-pyrazolo[4,3-d]pyrimidin-3-yl)-1-methylpyridin-2(1H)-one] the figure was at most 100 nM.
For the compound `CNCc1cc(F)c(-c2ncc3[nH]nc(-c4ccc(OC)cc4)c3n2)c(F)c1` [Example 63, 1-(3,5-Difluoro-4-(3-(4-methoxyphenyl)-1H-pyrazolo[4,3-d]pyrimidin-5-yl)phenyl)-N-methylmethanamine], the inhibitory constant (Ki) is at most 100 nM.
In the case of `Cc1cc(C2CCCCN2)cc(F)c1-c1ncc2[nH]nc(-c3ccc(N4CCN(C)CC4)cc3)c2n1` (stereo not drawn) [Example 81, 5-(2-Fluoro-6-methyl-4-(piperidin-2-yl)phenyl)-3-(4-(4-methylpiperazin-1-yl)phenyl)-1H-pyrazolo[4,3-d]pyrimidine], the Ki was at most 100 nM.
In the case of `CNC1CCCc2c1cc(F)c(-c1ncc3[nH]nc(-c4ccc(N5CCOCC5)nc4)c3n1)c2F` (stereo not drawn) [Example 116, 5,7-Difluoro-N-methyl-6-(3-(6-morpholinopyridin-3-yl)-1H-pyrazolo[4,3-d]pyrimidin-5-yl)-1,2,3,4-tetrahydronaphthalen-1-amine], the Ki is at most 100 nM.
With `CNCc1cc(C)c(-c2ncc3[nH]nc(-c4cnn(C)c4)c3n2)c(F)c1` [Example 78, 1-(3-Fluoro-5-methyl-4-(3-(1-methyl-1H-pyrazol-4-yl)-1H-pyrazolo[4,3-d]pyrimidin-5-yl)phenyl)-N-methylmethanamine] the figure was at most 100 nM.
To `COc1cccc(F)c1-c1ncc2[nH]nc(-c3cccc(N4CCNCC4)c3)c2n1` [Example 27, 5-(2-Fluoro-6-methoxyphenyl)-3-(3-(piperazin-1-yl)phenyl)-1H-pyrazolo[4,3-d]pyrimidine] belongs at most 100 nM; to `COc1cccc(F)c1-c1ncc2[nH]nc(-c3ccc(N4CCN(C(C)=O)CC4)nc3)c2n1` [Example 54, 1-(4-(5-(5-(2-Fluoro-6-methoxyphenyl)-1H-pyrazolo[4,3-d]pyrimidin-3-yl)pyridin-2-yl)piperazin-1-yl)ethan-1-one], at most 100 nM.
To `CN1CCN(c2ccc(-c3n[nH]c4cnc(-c5ccccc5F)nc34)cc2)CC1` [Example 1, 5-(2-Fluorophenyl)-3-[4-(4-methylpiperazin-1-yl)phenyl]-1H-pyrazolo[4,3-d]pyrimidine] belongs at most 100 nM; to `CNCc1cc(F)c(-c2ncc3[nH]nc(-c4ccc(N5CCN(C(C)=O)CC5)nc4)c3n2)c(C(F)(F)F)c1` [Example 77, 1-(4-(5-(5-(2-Fluoro-4-((methylamino)methyl)-6-(trifluoromethyl)phenyl)-1H-pyrazolo[4,3-d]pyrimidin-3-yl)pyridin-2-yl)piperazin-1-yl)ethanone], at most 100 nM.
In turn, `COc1cccc(F)c1-c1ncc2[nH]nc(-c3cncnc3)c2n1` [Example 16, 5-(2-Fluoro-6-methoxyphenyl)-3-(pyrimidin-5-yl)-1H-pyrazolo[4,3-d]pyrimidine] returned an inhibition constant Ki of 100 to 500 nM.
To `Cc1c2c(cc(F)c1-c1ncc3[nH]nc(-c4ccnc(N5CCN(C)CC5)c4)c3n1)CCNC2` [Example 107, 6-Fluoro-8-methyl-7-(3-(2-(4-methylpiperazin-1-yl)pyridin-4-yl)-1H-pyrazolo[4,3-d]pyrimidin-5-yl)-1,2,3,4-tetrahydroisoquinoline] belongs at most 100 nM; to `Cc1cc2c(c(F)c1-c1ncc3[nH]nc(-c4ccc(N5CCN(C)CC5)nc4)c3n1)CNCC2` [Example 112, 8-Fluoro-6-methyl-7-(3-(6-(4-methylpiperazin-1-yl)pyridin-3-yl)-1H-pyrazolo[4,3-d]pyrimidin-5-yl)-1,2,3,4-tetrahydroisoquinoline], at most 100 nM; to `COc1c(-c2ncc3[nH]nc(-c4ccc(N5CCOCC5)nc4)c3n2)c(F)cc2c1C(N)CC2` (stereo not drawn) [Example 119, 5-Fluoro-7-methoxy-6-(3-(6-morpholinopyridin-3-yl)-1H-pyrazolo[4,3-d]pyrimidin-5-yl)-2,3-dihydro-1H-inden-1-amine], at most 100 nM.
As for `COc1ccc(-c2n[nH]c3cnc(-c4c(F)cccc4OC)nc23)cc1` [Example 35, 5-(2-Fluoro-6-methoxyphenyl)-3-(4-methoxyphenyl)-1H-pyrazolo[4,3-d]pyrimidine], the Ki was at most 100 nM.
`Cc1c2c(cc(F)c1-c1ncc3[nH]nc(-c4ccc(N5CCN(C)CC5)cc4)c3n1)CCNC2` [Example 111, 6-Fluoro-8-methyl-7-(3-(4-(4-methylpiperazin-1-yl)phenyl)-1H-pyrazolo[4,3-d]pyrimidin-5-yl)-1,2,3,4-tetrahydroisoquinoline] yielded a Ki of at most 100 nM.
For `Cc1cccc(F)c1-c1ncc2[nH]nc(-c3ccc(N4CCNCC4)cc3)c2n1` [Example 59, 5-(2-Fluoro-6-methylphenyl)-3-(4-(piperazin-1-yl)phenyl)-1H-pyrazolo[4,3-d]pyrimidine], the Ki is at most 100 nM.
In turn, `COc1ccncc1-c1ncc2[nH]nc(-c3ccc(N4CCN(C)CC4)nc3)c2n1` [Example 103, 5-(4-Methoxypyridin-3-yl)-3-(6-(4-methylpiperazin-1-yl)pyridin-3-yl)-1H-pyrazolo[4,3-d]pyrimidine] had a Ki of at most 100 nM.
In the case of `COc1ccc(F)c(F)c1-c1ncc2[nH]nc(-c3ccc(N4CCN(C)CC4)cc3)c2n1` [Example 45, 5-(2,3-Difluoro-6-methoxyphenyl)-3-(4-(4-methylpiperazin-1-yl)phenyl)-1H-pyrazolo[4,3-d]pyrimidine], the Ki is at most 100 nM.
Consider `Cc1c2c(cc(F)c1-c1ncc3[nH]nc(-c4ccc(N5CCOCC5)nc4)c3n1)CCNC2` [Example 109, 4-(5-(5-(6-Fluoro-8-methyl-1,2,3,4-tetrahydroisoquinolin-7-yl)-1H-pyrazolo[4,3-d]pyrimidin-3-yl)pyridin-2-yl)morpholine], for which the Ki is at most 100 nM.
To `CC(=O)N1CCN(c2ccc(-c3n[nH]c4cnc(-c5c(F)cc6c(c5C)CNCC6)nc34)cc2)CC1` [Example 108, 1-(4-(4-(5-(6-Fluoro-8-methyl-1,2,3,4-tetrahydroisoquinolin-7-yl)-1H-pyrazolo[4,3-d]pyrimidin-3-yl)phenyl)piperazin-1-yl)ethanone] belongs at most 100 nM; to `COc1cccc(F)c1-c1ncc2[nH]nc(-c3cnn(C)c3)c2n1` [Example 14, 5-(2-Fluoro-6-methoxyphenyl)-3-(1-methyl-1H-pyrazol-4-yl)-1H-pyrazolo[4,3-d]pyrimidine], at most 100 nM.
To `CCNCc1cc(F)c(-c2ncc3[nH]nc(-c4cnn(C)c4)c3n2)c(OC)c1` [Example 87, N-(3-Fluoro-5-methoxy-4-(3-(1-methyl-1H-pyrazol-4-yl)-1H-pyrazolo[4,3-d]pyrimidin-5-yl)benzyl)ethanamine] belongs at most 100 nM.
